Measured values as given in patent publication US20110152093A1, “Herbicidal compositions comprising flufenacet” (Bayer CropScience AG, priority 2009, published 2011).

Legend:
Format in all cases: in vivo
[1] = system: HORVS (Hordeum vulgare, summer barley); assay: Action under various soil conditions (soil types), test method 7, crop compatibility; conditions: g of AS/ha: (A) 90, (B) 1200, (C) 140, (A)+(B)+(C) 90 + 1200 + 140
Experimental: (§1) In the standard design of the test, seeds of various broad-leaved weed and weed grass biotypes (origins) were sown in a 8-13 cm diameter pot filled with natural soil of a standard field soil (loamy silt; non-sterile) and covered with a covering soil layer of about 1 cm. The pots were then cultivated in a greenhouse (12-16 h of light, temperature day 20-22° C., night 15-18° C.) until the time of application. The pots were treated on a laboratory track sprayer with spray liquors comprising the compositions according to the invention, mixtures of the prior art or components used individually. Application of the active compounds or active compound combinations formulated as WG, WP, EC or otherwise was carried out at the appropriate growth stages of the plants. The application rate for the spray application was 100-600 l of water/ha. After the treatment, the plants were returned to the greenhouses.
(§2) About 3 weeks after the application, the soil action or/and foliar action was assessed visually according to a scale of 0-100% in comparison to an untreated comparative group: 0%=no noticeable effect compared to the untreated comparative group; 100%=full effect compared to the untreated comparative group.
(notes: the term “seeds” also includes vegetative propagation forms such as, for example, rhizome pieces; abbreviations used: h light=hours of illumination, g of AS/ha=gram of active substance per hectare, l/ha=liter per hectare, S=sensitive, R=resistant) • 1. Pre-emergence action against weeds: seeds of various broad-leaved weed and weed grass biotypes (origins) were sown in a 8-13 cm diameter pot filled with natural soil of a standard field soil (loamy silt; non-sterile) and covered with a covering soil layer of about 1 cm. The pots were then cultivated in a greenhouse (12-16 h of light, temperature day 20-22° C., night 15-18° C.) until the time of application. The pots were treated at the BBCH stage 00-10 of the seeds/plants on a laboratory track sprayer with spray liquors comprising the compositions according to the invention, mixtures or components used individually, as WG, WP, EC or other formulations. The application rate for the spray application was 100-600 l of water/ha. After the treatment, the plants were returned to the greenhouses and, when required, treated with fertilizer and watered. • 2. Post-emergence action against weeds: seeds of various broad-leaved weed and weed grass biotypes (origins) were sown in a 8-13 cm diameter pot filled with natural soil of a standard field soil (loamy silt; non-sterile) and covered with a covering soil layer of about 1 cm. The pots were then cultivated in a greenhouse (12-16 h of light, temperature day 20-22° C., night 15-18° C.) until the time of application. The pots were treated at various BBCH stages between 11-25 of the seeds/plants, i.e. generally between two to three weeks after the start of the cultivation, on a laboratory track sprayer with spray liquors comprising the compositions according to the invention, mixtures or components used individually, as WG, WP, EC or other formulations. The application rate for the spray application was 100-600 l of water/ha. After the treatment, the plants were returned to the greenhouses and, when required, treated with fertilizer and watered. • 3. […]

[2] = system: MATCH (Matricaria chamomilla); assay: PE action under various irrigation conditions, test method 6; conditions: PE application
Experimental: as §1, §2
(§3) (notes: the term “seeds” also includes vegetative propagation forms such as, for example, rhizome pieces; abbreviations used: h light=hours of illumination, g of AS/ha=gram of active substance per hectare, l/ha=liter per hectare, S=sensitive, R=resistant) • 1. Pre-emergence action against weeds: seeds of various broad-leaved weed and weed grass biotypes (origins) were sown in a 8-13 cm diameter pot filled with natural soil of a standard field soil (loamy silt; non-sterile) and covered with a covering soil layer of about 1 cm. The pots were then cultivated in a greenhouse (12-16 h of light, temperature day 20-22° C., night 15-18° C.) until the time of application. The pots were treated at the BBCH stage 00-10 of the seeds/plants on a laboratory track sprayer with spray liquors comprising the compositions according to the invention, mixtures or components used individually, as WG, WP, EC or other formulations. The application rate for the spray application was 100-600 l of water/ha. After the treatment, the plants were returned to the greenhouses and, when required, treated with fertilizer and watered. • 2. Post-emergence action against weeds: seeds of various broad-leaved weed and weed grass biotypes (origins) were sown in a 8-13 cm diameter pot filled with natural soil of a standard field soil (loamy silt; non-sterile) and covered with a covering soil layer of about 1 cm. The pots were then cultivated in a greenhouse (12-16 h of light, temperature day 20-22° C., night 15-18° C.) until the time of application. The pots were treated at various BBCH stages between 11-25 of the seeds/plants, i.e. generally between two to three weeks after the start of the cultivation, on a laboratory track sprayer with spray liquors comprising the compositions according to the invention, mixtures or components used individually, as WG, WP, EC or other formulations. The application rate for the spray application was 100-600 l of water/ha. After the treatment, the plants were returned to the greenhouses and, when required, treated with fertilizer and watered. • 3. Selective pre-emergence action: seeds of various crop species (origins) were sown in a 8-13 cm diameter pot filled with natural soil of a standard field soil (loamy silt; non-sterile) and covered with a covering soil layer of about 1 cm. The pots were then cultivated in a greenhouse (12-16 h of light, temperature day 20-22° C., night 15-18° C.) until the time of application. The pots were treated at the BBCH stage 00-10 of the seeds/plants on a laboratory track sprayer with spray liquors comprising the compositions according to the invention, mixtures or components used individually, as WG, WP, EC or other formulations. The application rate for the spray application was 100-600 l of water/ha. […]

LOLPE (Lolium perenne) = assay: as above; conditions: PE application, g of AS/ha: (A) 90, (B) 1200, (C) 140, (A)+(B)+(C) 90 + 1200 + 140
Experimental: as §1, §2, §3

[3] = system: MATCH (Matricaria chamomilla); assay: PE action at different sowing depths, test method 9; conditions: PE application, g of AS/ha: (A) 90, (B) 1200, (C) 140, (A)+(B)+(C) 90 + 1200 + 140
Experimental: as §1
as §2, with “group. […]” for “group.”

[4] = system: HORVS (Hordeum vulgare, summer barley); assay: PE crop selectivity at different sowing depths, test method 9; conditions: PE application, g of AS/ha: (A) 90, (B) 1200, (C) 140, (A)+(B)+(C) 90 + 1200 + 140
Experimental: as §1
as §2, with “group. […]” for “group.”

[5] = system: HORVS (Hordeum vulgare, summer barley); assay: PE crop compatibility at different soil pH values, test method 10; conditions: PE application, g of AS/ha: (A) 90, (B) 1200, (C) 140, (A)+(B)+(C) 90 + 1200 + 140
Experimental: as §1, §2

[6] = system: MATCH (Matricaria chamomilla); assay: Action under various soil conditions (soil types), test method 7; conditions: g of AS/ha: (A) 90, (B) 1200, (C) 140, (A)+(B)+(C) 90 + 1200 + 140
Experimental: as §1, §2, §3

STEME (Stellaria media) = assay: as above; conditions: g of AS/ha: (A) 90, (B) 1200, (C) 140, (A)+(B)+(C) 90 + 1200 + 140
Experimental: as §1, §2, §3

CCC(CC)Nc1c([N+](=O)[O-])cc(C)c(C)c1[N+](=O)[O-] [(B) pendimethalin, N-(1-ethylpropyl)-3,4-dimethyl-2,6-dinitrobenzenamine]
activity HORVS IU soil (crop plant) ([1]; IU soil): 0% | activity HORVS IU/EC73 soil (crop plant) ([1]; IU/EC73 soil): 0% | activity MATCH ([2]; irrigation from above, g of AS/ha: (A) 90, (B) 1200, (C) 140, (A)+(B)+(C) 90 + 1200 + 90): 30% | activity MATCH ([2]; irrigation from below, g of AS/ha: (A) 90, (B) 1200, (C) 140, (A)+(B)+(C) 90 + 1200 + 140): 18% | activity LOLPE (LOLPE (Lolium perenne); irrigation from above): 75% | activity LOLPE (LOLPE (Lolium perenne); irrigation from below): 10% | activity MATCH 5 mm ([3]; sowing depth 5 mm): 0% | activity MATCH 20 mm ([3]; sowing depth 20 mm): 30% | activity HORVS 5 mm (crop plant) ([4]; sowing depth 5 mm): 30% | activity HORVS 20 mm (crop plant) ([4]; sowing depth 20 mm): 20% | activity HORVS pH 7.4 (crop plant) ([5]; soil pH 7.4): 0% | activity HORVS pH 8.4 (crop plant) ([5]; soil pH 8.4): 15% | activity MATCH IU soil ([6]; IU soil): 10% | activity MATCH IU/EC73 soil ([6]; IU/EC73 soil): 0% | activity STEME IU soil (STEME (Stellaria media); IU soil): 85% | activity STEME IU/EC73 soil (STEME (Stellaria media); IU/EC73 soil): 55%
